# Data as given in US10603298B2, “Succinate dehydrogenase inhibitors (SDHi's)” (Medical Research Council, priority 2014, dated 2020).
# What was measured:
# [1] = administered orally; cited from earlier work
# [2] = tested on: adult primary rat cardiomyocytes; assay: Mitochondrial membrane potential (TMRM) in primary cardiomyocytes during in situ IR; type: cell-based; settings: 4 mM in ischaemic buffer
# Procedure: FIG. 15: Tracking mitochondrial membrane potential in primary cardiomyocytes during in situ IR. Primary rat cardiomyocytes were subjected to 40 min ischaemia and reoxygenation and mitochondrial membrane potential was tracked throughout the experiment by measurement of tetramethylrhoadmine (TMRM) fluorescence. […] Average traces from at least three replicate experiments are shown. (a) TMRM signal throughout the entire experiment.
# Male Sprague-Dawley rats (300-370 g) were terminally anaesthetised via IP injections of 200 mg/kg sodium pentobarbitone and 330 U/kg heparin. Hearts were excised and retrograde perfused on a Langendorff-perfusion system with 13 mL/min oxygenated KH buffer at 37° C. […]
# Cells were imaged within 36 hours of plating. […] Simulated ischaemia was achieved by replacing the buffer with a pre-gassed, hypoxic recording buffer simulating ischaemia (as above but lacking glucose and containing 10 mM sodium lactate, 14.8 mM KCl; pH 6.4) and by covering the heated stage with a transparent, gas-impermeant lid, forming a small chamber into which argon was forced to maintain hypoxia. pO2 was routinely measured as <2.0 mm Hg during simulated ischaemia. […]
# Mitochondrial membrane potential was measured using tetramethylrhodamine, methyl ester (TMRM, Life Technologies) in dequench mode. […] TMRM fluorescence was excited at 543 nm and emission was collected using a LP 560 filter.
# [3] = tested on: rat brain transient middle cerebral artery occlusion (tMCAO) IR injury; assay: In vivo rat brain ischaemia and reperfusion (tMCAO): neurological score, infarct, histology; parameters: Median Neurological Score / Average Neurological Score: scale not given here; settings: for Average Neurological Score / Median Neurological Score: dimethyl malonate 6 mg/kg/min i.v. infusion
# From the text: The following murine models of warm ischaemia and/or IR injury were used: global ischaemia of ex vivo perfused mouse heart; in vivo mouse left descending coronary artery (LAD) ligation; in vivo rat brain transient middle cerebral artery occlusion (tMCAO); in vivo mouse kidney ischaemia by monolateral occlusion of the renal hilum; in vivo global ischaemia of the liver following cervical dislocation. The modelling of metabolic pathways in the ischaemic myocardium was done as described previously^11. The cell models of IR injury used were adult isolated primary rat cardiomyocytes and the mouse C2C12 myoblast cell line. Fluorescence within cardiomyocytes was assessed by laser scanning confocal microscopy. DHE fluorescence was used to measure ROS production, TMRM fluorescence in de-quench mode was used for mitochondrial membrane potential and NAD(P)H autofluorescence was used to assess the reduction potential of the NAD(P)H pools^8. To assess metabolic pathways in the ex vivo perfused mouse heart ^13C-labelled glucose, glutamine or aspartate were infused into the isolated heart and the ^13C isotopologues of CAC metabolites were then quantified by LC-MS. The effects of metabolic inhibitors on ischaemic metabolite accumulation and the distribution of ^13C-labels were assessed by i.v. infusion of metabolic inhibitors followed by LC-MS analysis of tissue metabolites. The redox state of the cardiac CoQ pool was assessed by LC. The amelioration of in vivo IR injury by metabolic inhibitors was assessed by i.v. administration of the inhibitors followed by measurement of the infarct size in the heart by triphenyltetrazolium chloride staining and in the brain by determining neurological function and infarct size by histology. Male spontaneously hypertensive stroke prone (SHRSP) rats from the colony maintained at the University of Glasgow (270-310 g) were anaesthetised with 5% isoflurane in oxygen and were intubated and ventilated throughout surgery (˜2.5% isoflurane/oxygen). Body temperature was maintained at 37±0.5° C. Animals underwent pre-stroke burrhole surgery^35 before transient middle cerebral artery occlusion (tMCAO, 45 min). Briefly, a silicone-coated monofilament was advanced (Doccol Corporation, USA) was advanced through the common carotid artery to block the origin of the MCA^36. Animals were maintained under anaesthesia during ischaemia. Immediately following removal of the filament, or after 5 mins of reperfusion, the brain was removed following cervical dislocation and infarct tissue separated from surrounding tissue on the ipsilateral side and snap frozen in liquid nitrogen for metabolomic analysis. Corresponding regions were taken from the contralateral side. […] These rats were then sacrificed by transcardiac perfusion fixation and the infarct area was assessed across 7 coronal levels following hematoxylin and eosin staining^39.
smiles,measurement,setting,value
COC(=O)CC(=O)OC [dimethyl malonate],LD50,[1],approximately 5 gms per kilogram
same,rate of mitochondrial polarisation upon reperfusion,[2],diminished the rate of mitochondrial polarisation upon reperfusion
same,Average Neurological Score,"[3]; Baseline, tMCAO rats",31.67
same,Median Neurological Score,"[3]; Baseline, tMCAO rats",32.00
same,Average Neurological Score,[3]; Day 1 after tMCAO,22.67
same,Median Neurological Score,[3]; Day 1 after tMCAO,22.00
same,Average Neurological Score,[3]; Day 2 after tMCAO,24.00
same,Median Neurological Score,[3]; Day 2 after tMCAO,24.00
same,Average Neurological Score,[3]; Day 3 after tMCAO,24.33
same,Median Neurological Score,[3]; Day 3 after tMCAO,25.00
same,neurological function associated with stroke,[3]; i.v. infusion during rat tMCAO,preventing the decline in neurological function
same,protection against brain IR injury,[3]; i.v. infusion during rat tMCAO,protective
same,volume of infarcted brain tissue caused by IR injury,[3]; i.v. infusion during rat tMCAO,decreasing the volume of infarcted brain tissue
same,pyknotic nuclear morphology and vacuolation of the neuropil (histology),"[3]; i.v. infusion during rat tMCAO, hematoxylin and eosin",reducing the pyknotic nuclear morphology and vacuolation of the neuropil
